Measurements taken from US20240425457A1, “COMPOSITIONS AND METHODS FOR SUPPRESSING AND/OR TREATING METABOLIC DISEASES AND/OR A CLINICAL CONDITION THEREOF” (CK Biotech Inc., priority 2018, published 2024).
≈ marks a conversion by molar mass, not a printed value. Entries after “also recorded” stand apart in the source; their conditions may differ.

What was measured:
Wnt/β-catenin signaling = Wnt/β-catenin signaling (TOPFlash) reporter luciferase assay in HEK293-TOP cells; type: cell-based
Protocol: Luciferase reporter assay. HEK293-TOP cells were seeded in 24-well plates. Cells were treated with A3334 at a concentration of 1, 5, and 10 μM for 24 h. Total cell lysates were extracted with 35 μl of 5× Reporter Lysis Buffer per well according to the manufacturer's instructions (Promega). A total of 35 μl of luciferin was added and luciferase activity was measured using a Fluorstar Optima microplate reader.
Wnt/β-catenin signaling reporter luciferase assay. HEK293-TOP cells were seeded were seeded in 96-well plates at a density of 2.5×10^4 cells per well. Cells were treated with individual chemicals at a concentration of 1, 5, 10 µM for 24 h. Total cell lysates were extracted with 25 µl of 5× Reporter Lysis Buffer per well according to the manufacturer's instruction (Promega, Madison, WI). Luciferin (25 µl) was added and luciferase activity was measured using FLUOSTAR (BMG labtech, Offenburg, Germany).

[1] = tested on: HFD+STZ-induced diabetes mice; experiment: HFD-fed and STZ-induced diabetes mice; type: in vivo
Source text: Animals. The generation of Cxxc5^−/− mice has been described previously. Cxxc5 heterozygous mice were intercrossed for four generations to obtain littermate wild-type and Cxxc5^−/− mice and were maintained on a C57BL/6 background. Six-week-old Cxxc5^+/+ and Cxxc5^−/− mice were fed HFD for 8 weeks. Wild-type male C57BL/6 mice (KOATECH, Seoul, Korea) were fed HFD consisting of 60% calories from fat (Research Diet, D12492) for 8 weeks. To validate that the insulin resistance mouse model was successfully established, fasting glucose levels were assessed with a One Touch Ultra glucometer (LifeScan). Subsequently, each HFD-fed mouse with a fasting glucose level higher than 16.7 mmol/L was orally administered A3334 (25 mg kg^−1), sitagliptin (50 mg kg^−1), or metformin (100 mg kg^−1) each day for 5 days at weeks 8 and 12. After the removal of the drugs, mice were maintained for 3 weeks on the HFD. To monitor pancreas regeneration, six-week-old Cxxc5^+/+ and Cxxc5^−/− mice were fed an HFD as above. After dietary treatment for 4 weeks, the mice were intraperitoneally injected with STZ (50 mg/kg/d) for 1 week and the control group were injected with saline. After 2 weeks, Cxxc5^+/+ mice were administered A3334 (25 mg kg^−1) and sitagliptin (50 mg kg^−1) per day by oral gavage for 4 weeks. For GTT or ITT, mice were injected with D-glucose (1.5 g/kg body weight) after overnight starvation or human insulin (0.75 units/kg body weight) after 4 h starvation, respectively. Tail blood was drawn at 0, 15, 30, 60, 120, 180 min intervals and blood glucose level was measured with a One Touch Ultra glucometer. All mice were maintained under temperature-controlled and light-controlled (standard 12 h light/dark cycle) conditions and provided with food and water ad libitum. All protocols were reviewed and approved by the Institutional Review Board of Severance Hospital, Yonsei University College of Medicine (09-013).
β-Cell and α-cell mass analyses. All of the β-cell, α-cell and the cross-sectional area of all pancreatic tissue were quantified. Total β-cell and α-cell area and total pancreas mass for each animal was calculated as the sum of the determinations from each of the 8-10 segments of pancreas. A total of 10-15 beta cells was counted for each pancreas.
A3334 suppressed diabetes induced by multiple low-dose STZ-induced diabetes. Referring now to FIG. 40A-40G, C57BL/6N mice were induced diabetes by HFD for 8 weeks, and induced diabetes by injection of 50 mpk streptozotosin (STZ) for 1 week. After 2 weeks, A3334 (25 mpk) or SITA (25 mpk) was applied for 4 more weeks, histological analyses of pancreas were done.

normal (Chow) mice = experiment: normal diet (NCD/Chow) fed mice treated with A3334; type: in vivo
Source text: No effect of A3334 on mice fed with normal diet. To evaluate whether the A3334 treatment would have any effect on normal diet fed mice, C57BL/6N mice were fed normal diet for 16 weeks with or without oral administration of 25 mpk A3334.

db/db diabetes mice = experiment: db/db diabetes mice; type: in vivo; settings: 1 and 2 weeks of treatment
[2] = solubility of A3334 in oil or surfactants (LC/MS/MS); type: physicochemical; settings: 37 °C, thermodynamic from solid
Protocol: To determine emulsion solution, solubility of A3334, for example, is measured in the several oil and surfactants. A3334 is mixed with oil or surfactants (1 ml) and vortexed for 30 min. The equilibrium state was reached by shaking for 72 hours at 37° C. with 50 rpm speed in an incubator, then centrifuged at 16,100×g for 5 min. The supernatant was diluted with methanol and analyzed by LC/MS/MS (see e.g., Table 7).
‘Waters xevo TQ MS-ACQUITY UPLC System’ is used as an analyses equipment. ACQUITY UPLC® BEH(C18, 1.7 μm, 2.1×50 mm) column was used for analyses at room temperature. Mobile phase is used after filtration of deionized distilled water including 0.1% formic acid and acetonitrile including 0.1% formic acid (30:70, v/v) with […] membrane filter. The flow rate is 0.25 ml/min and it is analyzed by injection of 0.5 μl sample. There are LC/MS/MS conditions for Decursin analysis; Cone 38 V, Collison 32 V. Precursor ion and daughter ion are monitored 329 and 229 m/z, respectively.

Question: Which “Wnt/β-catenin (TOPFlash) reporter activity” value (Wnt/β-catenin signaling) does the source give for `COc1ccc2c(c1)/C(=C1/Nc3ccccc3/C1=N\O)C(=O)N2` [Compound A3334, 5-Methoxyindirubin-3′-oxime] here?
Answer: dose-dependent increment of the TOPFlash reporter activity

Question: And the body weight [1]?
Answer: slightly increased

Question: What about the “proliferative status of β-cells (PCNA+)” value [1] of the same compound?
Answer: exhibited normal proliferative status after the A3334 treatment

Question: And the “glucose tolerance test and insulin tolerance test” value ([1]; 4 weeks p.o.)?
Answer: improved the results from the glucose tolerance test (GTT) and insulin tolerance test (ITT)

Question: And the “blood / fasting glucose level” value ([1]; A3334 25 mpk, SITA 25 mpk, 4 weeks)?
Answer: lowered the glucose level; also recorded: more significantly lowered by A3334 compared to that by SITA

Question: What about the “β-cell and α-cell mass” value ([1]; IHC insulin and glucagon) of the same compound?
Answer: increased and decreased, respectively, by the A3334 treatment

Question: And the “pancreatic islets / β-cells (insulin, β-catenin, PCNA, Pdx-1)” value ([1]; histology/IHC)?
Answer: restores β-cell mass and functions; also recorded: showed normal islets with insulin secretion and increased expression levels of β-catenin, PCNA, and Pdx-1; also recorded: mostly protected with the A3334 treatment

Question: And the “effect on normal diet fed mice (fat size, organ weight, ALT and AST)” value (normal (Chow) mice; 25 mg/kg/d p.o.)?
Answer: has no effect in NCD mice; also recorded: did not have any effect on normal (Chow) mice; also recorded: no observation of metabolic disease phenotypes; also recorded: did not show any differences on size of fats (FIG. 36A-36B), weight of organs (FIG. 36D), and level of ALT and AST in blood serum

Question: What about the “histology of normal diet fed mice” value (normal (Chow) mice; 25 mpk p.o.) of the same compound?
Answer: no histological differences were observed

Question: And the fasting glucose level (db/db diabetes mice)?
Answer: reduces fasting glucose levels

Question: And the solubility at 72 h ([2]; oil or lipid, Oil: Olive oil)?
Answer: 830 µg/mL (≈ 2.7 mM)

Question: And the solubility at 72 h ([2]; oil or lipid, Oil: Sunflower oil)?
Answer: 1350 µg/mL (≈ 4.39 mM)

Question: And the solubility at 72 h ([2]; organic solvent or mixture, Co-Surfactant: Propylene glycol)?
Answer: 250 µg/mL (≈ 0.814 mM)

Question: And the solubility at 72 h ([2]; organic solvent or mixture, Co-Surfactant: Transcutor P)?
Answer: 1150 µg/mL (≈ 3.74 mM)

Question: And the solubility at 72 h ([2]; KOLLIPHOR EL (listed as oil), aqueous with cosolvent or surfactant or cyclodextrin, Oil: KOLLIPHOR EL)?
Answer: 5400 µg/mL (≈ 17.6 mM)

Question: And the solubility at 72 h ([2]; PEG 400 (co-surfactant), organic solvent or mixture, Co-Surfactant: PEG 400)?
Answer: 3100 µg/mL (≈ 10.1 mM)

Question: What about the solubility at 72 h ([2]; Tween 20 (surfactant), aqueous with cosolvent or surfactant or cyclodextrin, Surfactants: Tween 20) of the same compound?
Answer: 4580 µg/mL (≈ 14.9 mM)

Question: What about the solubility at 72 h ([2]; Tween 80 (surfactant), aqueous with cosolvent or surfactant or cyclodextrin, Surfactants: Tween 80) of the same compound?
Answer: 4920 µg/mL (≈ 16 mM)
